Like-named read-outs stand apart in the source and are kept apart here. Some results are limits rather than exact numbers.

What all share (format): cell-based
For one assay, the target named is T1, NR1a/NR2A receptors (Rattus norvegicus, UniProt Q00959).
T1 construct: expressed in transfected cells; host or cells: HEK293, transient expression
The assay can be described thus: NMDA antagonist potency on HEK cells transiently transfected with NR1a/NR2A subunits, patch clamp method. The following applies: HEK293, 15 μM test concentration, 100 μM NMDA, -70 mV, read-out: NR1/NR2A % Inhibition of NMDA Ca2+-response 15 μM. The protocol: (§1) Genes cloned according to published sequences [gi508809 (rat NR1a), gi205738 (rat NR2B), gi2905805 (rat NR2A)] were inserted into inducible mammalian expression vectors bearing different resistance genes (hygromycine in case of NR1a or neomycine in case of NR2 subunits). The vector constructs were introduced into HEK293 cells using a cationic lipid-mediated transfection method. Protein expression was induced by 3 μM MuristeronA. Cells were maintained in the presence of 365 μM ketamine for 48-72 hours under an atmosphere of 95% air-5% CO2 at 37° C. before the experiments.
Assessment of NMDA Antagonist Potency on Cells Transfected with NR1a/NR2A Subunits—Patch Clamp Method
Cells transiently expressing NR1a/NR2A receptors and grown onto coverslips were used in patch clamp experiments. Whole-cell patch clamp recording was done according to the standard technique. Cell cultures were constantly superfused with an extracellular solution (140 mM NaCl, 5 mM KCl, 5 mM Hepes, 5 mM Na-Hepes, 2 mM CaCl2, 20 mM glucose, 10 μM glycine, pH 7.35) at room temperature. Patch pipettes with resistance between 3 and 6 MΩ were filled with an intracellular solution (140 mM CsCl, 11 mM EGTA, and 10 mM Hepes, pH 7.3). The inward current elicited by 100 μM NMDA was recorded from cells voltage clamped at −70 mV. Compounds were applied via a multibarrel ejection device controlled by electromagnetic valves. First NMDA was repeatedly administered until stabilization of responses, then it was given in the presence of the test compound. The degree of inhibition—expressed as percentage—was calculated from the peak currents evoked by NMDA in the presence and absence of the test compound. Selectivity ratio (NR2B/NR2A), was calculated as the ratio of test dose on NR1/2A transfected cells and IC50 value of NMDA antagonism on NR1/NR2B expressing cells.

The next assay concerns the target T2, NMDA receptors (Rattus norvegicus, UniProt P35439+Q00960).
T2 construct: primary neocortical cell cultures derived from 17 day old Charles River rat embryos; endogenous in cells; host or cells: primary neocortical neurons from 17 day old rat embryos, 4-7 days in vitro
The assay can be described thus: NMDA antagonist potency in vitro by measurement of intracellular calcium concentration with a plate reader fluorimeter, primary neocortical cell cultures. The source says: It is known that during postnatal development the subunit composition of neuronal NMDA receptors is changing. […] Since NMDA receptors are known to be permeable to calcium ions upon excitation, we characterized the NMDA receptor activation by measurement of rise in intracellular calcium concentration following the agonist (NMDA) application to the cells.
Assessment of NMDA Antagonist Potency In Vitro by Measurement of Intracellular Calcium Concentration with a Plate Reader Fluorimeter
The cultures were used for the intracellular calcium measurements after 4-7 days in vitro. […] To stop the loading the cells were washed twice with the solution used for the measurement (140 mM NaCl, 5 mM KCl, 2 mM CaCl2, 5 mM HEPES, 5 mM HEPES-Na, 20 mM glucose, 10 μM glycine, pH=7.4). After washing the test compounds were added to the cells in the above solution (90 μl/well). Intracellular calcium measurements were carried out with a plate reader fluorimeter: elevation of Fluo-4-fluorescence and so, intracellular calcium was induced by application of 40 μM NMDA. Inhibitory potency of the test compounds was assessed by measuring the reduction in the calcium elevation in the presence of different concentrations of the compounds. After the measurement a standard calibration procedure with slight modifications was used to convert the fluorescent data to calcium concentration values [Meth. Cell.
Dose-response curves and IC50-values were calculated by using data derived from at least three independent experiments. Inhibitory potency of a compound at a single concentration point was expressed as percent inhibition of the NMDA response. Sigmoidal concentration-inhibition curves were fit to the data and IC50 values were determined as the concentration that produces half of the maximal inhibition caused by the compound.
In general terms: Calcium assays in cells follow changes in intracellular calcium, usually with a dye or a luminescent sensor.

Another assay has as its target T3, NR1a/NR2B receptors (Rattus norvegicus, UniProt P35439+Q00960).
T3 construct: expressed in transfected cells
The assay can be described thus: NMDA antagonist potency on HEK293 cells stably expressing NR1a/NR2B subunits, fluorimetric method. The following applies: for IC50: HEK293 cells stably expressing NR1a/NR2B, intracellular calcium, plate reader fluorimeter, means of 3 experiments, read-out: NR1/NR2B IC50. The protocol: as §1
Assessment of NMDA Antagonist Potency on Cells Transfected with NR1a/NR2B Subunits—Fluorimetric Method
For establishment of cell clones stably expressing NR1a/NR2B receptors, transfected cells were exposed to the selecting antibiotics for 4 weeks then resistant clones were grown up. The expression of NR2B subunit protein was verified by a flow cytometry based immunocytochemical method. Positive clones were further tested for functional activity in patch clamp experiments. […] Induction of protein expression and maintenance of cells were the same as described above.
The cells were plated onto standard 96-well microplates. A plate reader-based fluorometric assay was used to measure NMDA antagonism. The method was essentially similar to that described above for testing primary cultures of rat cortical neurons.

Setting [1] is: rat primary neocortical cultures, 4-7 days in vitro, calcium elevation induced by 40 μM NMDA, Fluo-4, read-out: NMDA IC50.

T2 sequence (Q00960 27-1482, other chains not shown): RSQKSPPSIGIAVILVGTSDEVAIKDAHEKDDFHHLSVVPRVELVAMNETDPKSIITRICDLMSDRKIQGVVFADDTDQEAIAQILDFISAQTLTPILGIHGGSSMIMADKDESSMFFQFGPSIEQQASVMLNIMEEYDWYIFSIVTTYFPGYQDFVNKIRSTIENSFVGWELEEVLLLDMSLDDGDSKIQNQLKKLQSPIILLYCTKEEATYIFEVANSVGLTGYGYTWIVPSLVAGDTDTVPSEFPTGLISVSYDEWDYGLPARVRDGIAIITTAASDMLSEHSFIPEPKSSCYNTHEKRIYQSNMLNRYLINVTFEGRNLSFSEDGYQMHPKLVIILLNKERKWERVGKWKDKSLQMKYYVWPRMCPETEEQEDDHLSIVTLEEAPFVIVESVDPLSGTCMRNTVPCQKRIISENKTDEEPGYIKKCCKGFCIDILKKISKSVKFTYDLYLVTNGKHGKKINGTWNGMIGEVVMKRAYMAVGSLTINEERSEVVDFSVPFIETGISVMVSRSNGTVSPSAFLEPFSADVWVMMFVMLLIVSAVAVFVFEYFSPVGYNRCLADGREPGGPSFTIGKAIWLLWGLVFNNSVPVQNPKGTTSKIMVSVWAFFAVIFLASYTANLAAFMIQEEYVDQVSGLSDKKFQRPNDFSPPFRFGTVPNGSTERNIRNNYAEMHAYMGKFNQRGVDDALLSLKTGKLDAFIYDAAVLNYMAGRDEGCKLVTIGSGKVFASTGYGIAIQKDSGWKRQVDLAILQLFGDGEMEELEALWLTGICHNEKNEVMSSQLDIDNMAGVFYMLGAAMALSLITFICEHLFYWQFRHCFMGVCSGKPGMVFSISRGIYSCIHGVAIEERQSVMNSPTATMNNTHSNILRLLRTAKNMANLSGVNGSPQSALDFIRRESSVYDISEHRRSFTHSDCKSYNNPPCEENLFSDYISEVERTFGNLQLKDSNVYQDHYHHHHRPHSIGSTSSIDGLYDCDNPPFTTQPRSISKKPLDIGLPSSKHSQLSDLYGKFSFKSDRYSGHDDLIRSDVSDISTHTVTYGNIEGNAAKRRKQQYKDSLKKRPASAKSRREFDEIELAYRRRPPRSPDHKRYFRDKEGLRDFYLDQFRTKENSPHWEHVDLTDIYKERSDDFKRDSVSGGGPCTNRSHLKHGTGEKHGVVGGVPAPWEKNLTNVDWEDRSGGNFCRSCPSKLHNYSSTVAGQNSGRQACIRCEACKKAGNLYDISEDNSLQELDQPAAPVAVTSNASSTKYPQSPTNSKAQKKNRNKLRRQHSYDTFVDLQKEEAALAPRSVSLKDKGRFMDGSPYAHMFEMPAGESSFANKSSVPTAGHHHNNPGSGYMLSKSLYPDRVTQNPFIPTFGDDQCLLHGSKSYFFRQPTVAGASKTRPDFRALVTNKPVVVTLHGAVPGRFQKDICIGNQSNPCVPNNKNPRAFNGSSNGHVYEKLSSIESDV
T3 sequence (Q00960 27-1482, other chains not shown): as above
T1 sequence (Q00959 20-1464 limits assumed): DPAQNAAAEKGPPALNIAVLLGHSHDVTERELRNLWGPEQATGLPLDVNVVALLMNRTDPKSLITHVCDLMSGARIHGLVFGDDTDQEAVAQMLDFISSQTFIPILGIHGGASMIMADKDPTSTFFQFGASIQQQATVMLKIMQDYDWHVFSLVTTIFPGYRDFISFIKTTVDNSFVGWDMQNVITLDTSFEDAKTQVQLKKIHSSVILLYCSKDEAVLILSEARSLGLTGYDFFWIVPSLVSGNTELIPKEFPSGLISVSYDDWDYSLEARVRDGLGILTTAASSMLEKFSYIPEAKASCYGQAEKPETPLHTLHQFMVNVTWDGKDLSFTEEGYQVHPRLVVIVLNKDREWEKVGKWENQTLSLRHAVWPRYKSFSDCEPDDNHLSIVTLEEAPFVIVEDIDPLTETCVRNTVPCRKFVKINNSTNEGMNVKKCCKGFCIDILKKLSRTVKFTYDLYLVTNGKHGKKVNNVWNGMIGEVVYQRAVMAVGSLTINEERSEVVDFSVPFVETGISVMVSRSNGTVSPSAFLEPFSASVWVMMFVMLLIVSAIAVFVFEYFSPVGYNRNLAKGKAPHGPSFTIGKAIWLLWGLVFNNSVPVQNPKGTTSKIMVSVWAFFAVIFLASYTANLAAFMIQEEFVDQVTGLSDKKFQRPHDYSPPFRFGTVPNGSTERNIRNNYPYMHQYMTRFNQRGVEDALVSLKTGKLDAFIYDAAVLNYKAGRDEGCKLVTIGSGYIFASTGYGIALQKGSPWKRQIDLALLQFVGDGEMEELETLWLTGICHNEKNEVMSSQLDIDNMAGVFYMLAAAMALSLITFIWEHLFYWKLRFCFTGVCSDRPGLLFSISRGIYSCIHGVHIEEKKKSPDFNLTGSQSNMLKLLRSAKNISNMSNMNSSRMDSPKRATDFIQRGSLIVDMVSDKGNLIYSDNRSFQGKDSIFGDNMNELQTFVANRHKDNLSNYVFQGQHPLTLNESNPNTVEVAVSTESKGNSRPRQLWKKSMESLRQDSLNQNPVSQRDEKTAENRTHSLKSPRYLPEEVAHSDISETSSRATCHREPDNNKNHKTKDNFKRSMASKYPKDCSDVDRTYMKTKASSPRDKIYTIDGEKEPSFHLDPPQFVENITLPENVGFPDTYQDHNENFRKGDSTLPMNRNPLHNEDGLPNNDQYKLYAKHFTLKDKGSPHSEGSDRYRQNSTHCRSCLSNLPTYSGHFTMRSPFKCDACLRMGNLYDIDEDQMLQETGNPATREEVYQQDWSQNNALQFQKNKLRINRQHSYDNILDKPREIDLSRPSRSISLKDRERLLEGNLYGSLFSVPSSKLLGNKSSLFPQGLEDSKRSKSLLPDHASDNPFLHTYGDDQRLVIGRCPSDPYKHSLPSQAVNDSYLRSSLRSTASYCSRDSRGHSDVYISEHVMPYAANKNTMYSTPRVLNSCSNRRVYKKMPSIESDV

In the case of `C[C@@H]([C@@H](O)c1ccc(O)cc1)N1CCC(O)(c2ccccc2)CC1` [CP 101,606, (1S,2S)-1-(4-hydroxyphenyl)-2-(4-hydroxy-4-phenylpiperidine-1-yl)-1-propanol, reference compound], the inhibition at 15 µM on NR1a/NR2A receptors is -8.8%.
Take `Oc1ccc(OCCN2CCC(Cc3ccc(F)cc3)CC2)cc1` [Co-111103, 1-[2-(4-hydroxyphenoxy)ethyl]-4-(4-fluorobenzyl)piperidine, reference compound]: at NMDA receptors (setting [1]), the IC50 was 60 nM.
Consider `O=C(c1cc2ccc(O)cc2[nH]1)N1CCC(Cc2ccc(F)cc2)CC1` [Compound 4513848, 1-[4-(4-Fluorobenzyl)piperidine-1-yl]-1-(6-hydroxy-1H-indole-2-yl)methanone], for which the IC50 at NMDA receptors (setting [1]) was 90 nM.
On the same count and under the same terms, with `O=C(c1cc2ccc3[nH]ccc3c2[nH]1)N1CCC(Cc2ccccc2)CC1` [Compound 4514305, 1-(4-Benzylpiperidin-1-yl)-1-(1,6-dihydro-1,6-diaza-as-indacene-2-yl)methanone] the figure was 392 nM; with `Cc1ccc(CC2CCN(C(=O)c3nc4ccc(O)cc4[nH]3)CC2)cc1` [Compound 4570001378, (6-Hydroxy-1H-benzoimidazol-2-yl)-[4-(4-methyl-benzyl)-piperidine-1-yl]-methanone], 9 nM.
With `O=C(c1cc2cc3[nH]c(=O)oc3cc2[nH]1)N1CCC(Cc2ccccc2)CC1` [Compound 4570001461, 6-(4-Benzylpiperidin-1-carbonyl)-1,5-dihydro-oxazolo[4,5-f]indole-2-one], at NR1a/NR2B receptors, the IC50 is 15 nM. The inhibition at 15 µM on NR1a/NR2A receptors was found to be 14.9%.
Regarding `O=C(c1cc2cc3[nH]c(=O)oc3cc2[nH]1)N1CCC(OCc2ccccc2)CC1` [Compound 4570001462, 6-(4-Benzyloxypiperidin-1-carbonyl)-1,5-dihydro-oxazolo[4,5-f]indole-2-one], the IC50 at NMDA receptors (setting [1]) was found to be 79 nM.
As for `O=C(c1cc2cc3[nH]c(=O)oc3cc2[nH]1)N1CCC(Cc2ccc(F)cc2)CC1` [Compound 4570001484, 6-[4-(4-Fluorobenzyl)piperidin-1-carbonyl]-1,5-dihydro-oxazolo[4,5-f]indole-2-one], the IC50 at NMDA receptors (setting [1]) was 41 nM.
The same measure, in the same setting: the figure for `O=C(c1cc2c(ccc3cn[nH]c32)[nH]1)N1CCC(Cc2ccc(F)cc2)CC1` [Compound 4570001661, [4-(4-Fluorobenzyl)piperidin-1-yl]-(1,6-dihydro-pirrolo[2,3-g]indazol-7-yl)-methanone] is 150 nM; for `O=C(c1cc2c(ccc3cn[nH]c32)[nH]1)N1CCC(Cc2ccccc2)CC1` [Compound 4570001662, (4-Benzylpiperidin-1-yl)-(1,6-dihydro-pirrolo[2,3-g]indazol-7-yl)-methanone] it is 58 nM.
On the same count and under the same terms, the figure for `O=C(c1cc2c(ccc3[nH]cnc32)[nH]1)N1CCC(Cc2ccc(F)cc2)CC1` [Compound 4570001688, [4-(4-Fluorobenzyl)piperidin-1-yl]-(3,6-dihydro-imidazo[4,5-e]indol-7-yl)methanone] is 88 nM; for `O=C(c1cc2c(ccc3[nH]ncc32)[nH]1)N1CCC(Cc2ccccc2)CC1` [Compound 4570001689, (4-Benzylpiperidin-1-yl)-(3,6-dihydro-pirrolo[3,2-e]indazol-7-yl)methanone] it is 20 nM.
The same measure, in the same setting: the figure for `O=C(c1cc2c(ccc3[nH]ncc32)[nH]1)N1CCC(Cc2ccc(F)cc2)CC1` [Compound 4570001690, [4-(4-Fluorobenzyl)piperidin-1-yl]-(3,6-dihydro-pirrolo[3,2-e]indazol-7-yl)methanone] is 22 nM.
As for `O=C(c1cc2c(ccc3[nH]cnc32)[nH]1)N1CCC(Cc2ccccc2)CC1` [Compound 4570001779, (4-Benzylpiperidin-1-yl)-(3,6-dihydro-imidazo[4,5-e]indol-7-yl)methanone], the IC50 on NMDA receptors (setting [1]) is 50 nM.
The same measure, in the same setting: the figure for `O=C(c1nc2c(ccc3oc(=O)[nH]c32)[nH]1)N1CCC(Cc2ccccc2)CC1` [Compound 4570001971, 7-(4-Benzylpiperidin-1-carbonyl)-1,6-dihydro-3-oxa-1,6,8-triaza-as-indacen-2-one] is 328 nM; for `O=C(c1nc2cc3[nH]c(=O)oc3cc2[nH]1)N1CCC(Cc2ccccc2)CC1` [Compound 4570001972, 6-(4-Benzylpiperidin-1-carbonyl)-3,5-dihydro-imidazo[4′,5′;4,5]benzo[1,2-d]oxazole-2-one] it is 193 nM.
Same read-out and setting: with `O=C(c1cc2cc3[nH]c(=O)[nH]c3cc2[nH]1)N1CCC(Cc2ccccc2)CC1` [Compound 4570002045, 6-(4-Benzylpiperidin-1-carbonyl)-3,5-dihydro-1H-imidazo[4,5-f]indole-2-one] the figure was 440 nM.
Turning to `Cc1ccc(OC2CCN(C(=O)c3cc4c(ccc5[nH]ncc54)[nH]3)CC2)cc1` [Compound 4570002260, (3,6-Dihydro-pirrolo[3,2-e]indazol-7-yl)-(4-p-tolyloxypiperidin-1-yl)methanone], the results for the IC50 on NMDA receptors (setting [1]) and at NR1a/NR2B receptors were 42 nM and 30 nM, respectively. For the same compound, the “selectivity toward NR2B subunit containing NMDA receptors (in words)” value at NR1a/NR2B receptors (according to the results in Table 2) is “highly selective”. Besides, the “Selectivity (selectivity ratio NR2B/NR2A)” value at NR1a/NR2B receptors (ratio of test concentration on NR1/NR2A transfected cells and IC50 value on NR1/NR2B expressing cells) is on record as greater than 500. Besides, at NR1a/NR2A receptors, the inhibition at 15 µM came out at 3.3%.
For the compound `Cc1ccc(CC2CCN(C(=O)c3cc4c(ccc5[nH]ncc54)[nH]3)CC2)cc1` [Compound 4570002340, (3,6-Dihydro-pirrolo[3,2-e]indazol-7-yl)-[4-(4-methylbenzyl)piperidin-1-yl]methanone], the IC50 on NMDA receptors (setting [1]) came to 127 nM.
On the same count and under the same terms, with `O=C(CCN1CCC(Cc2ccc(F)cc2)CC1)c1ccc2[nH]c(=O)oc2c1` [EMD 95885, reference compound] the figure was 35 nM.
Turning to `C[C@@H](CN1CCC(Cc2ccccc2)CC1)[C@@H](O)c1ccc(O)cc1` [Ro 25.6981, R-(R*,S*)-1-(4-hydroxyphenyl)-2-methyl-3-[4-(phenylmethyl)piperidin-1-yl]-1-propanol, reference compound], the IC50 at NMDA receptors amounted to 159 nM.

(Values after patent US7365083B2, “Amide derivatives as NMDA receptor antagonists” (Richter Gedeon Vegyeszeti Gyar Rt., priority 2000, dated 2008).)
